Measured values as given in patent US6699686B1, “Modified nuclear glucocorticoid receptor, fusion protein, and DNA fragments coding for said receptor and said fusion protein” (Association pour le Development de la Recherche en …, priority 1996, dated 2004).

Molecular target: T1, hGR(I747/T) (Homo sapiens, UniProt P04150, I747T)
T1 construct: The same shift was observed as with the complete GR (I747/T) mutant; expressed in transfected cells
T1 sequence (P04150 1-777 I747T): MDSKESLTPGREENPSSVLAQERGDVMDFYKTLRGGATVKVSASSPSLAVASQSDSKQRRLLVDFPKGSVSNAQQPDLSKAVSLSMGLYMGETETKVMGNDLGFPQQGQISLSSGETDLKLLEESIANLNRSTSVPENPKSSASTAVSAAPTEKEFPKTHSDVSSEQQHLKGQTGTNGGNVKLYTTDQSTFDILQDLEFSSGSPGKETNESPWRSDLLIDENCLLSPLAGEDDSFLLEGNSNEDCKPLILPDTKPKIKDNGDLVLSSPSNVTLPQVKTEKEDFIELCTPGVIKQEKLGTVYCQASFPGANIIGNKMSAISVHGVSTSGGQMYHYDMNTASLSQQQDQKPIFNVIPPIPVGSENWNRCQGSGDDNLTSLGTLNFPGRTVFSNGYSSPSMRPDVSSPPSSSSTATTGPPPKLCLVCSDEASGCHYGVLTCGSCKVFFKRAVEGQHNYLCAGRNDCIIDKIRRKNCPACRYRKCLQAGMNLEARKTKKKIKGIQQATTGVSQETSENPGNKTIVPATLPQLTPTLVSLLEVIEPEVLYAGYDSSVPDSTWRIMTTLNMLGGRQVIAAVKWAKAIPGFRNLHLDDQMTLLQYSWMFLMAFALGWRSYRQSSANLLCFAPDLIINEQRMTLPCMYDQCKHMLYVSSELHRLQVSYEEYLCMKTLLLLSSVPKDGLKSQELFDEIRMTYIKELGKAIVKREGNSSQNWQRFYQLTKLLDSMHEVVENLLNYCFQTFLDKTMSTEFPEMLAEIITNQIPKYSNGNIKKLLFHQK
Assay: Transcriptional activation of pTAT-tk-Luc luciferase reporter in transiently transfected CV-1 cells
Assay type: cell-based
Details: CV-1 cells, pTAT-tk-Luc; for Luciferase activity % hGR (I747/T): 24 h ligand, mean of three independent assays; for EC50 hGR (I747/T): ligand concentration giving 50% of maximum transcriptional response
Method: The receptors were transiently expressed in GR-free CV-1 cells, conjointly with a luciferase reporter gene under the control of the tyrosine aminotransferase promoter (pTAT-tk-Luc).
After transfection, the cells were incubated for 24 hours with increasing concentrations of Dex, and they were then subjected to an assay of the β-galactosidase and luciferase activities, as described in “Materials and Methods”. The luciferase activity was normalized with the β-galactosidase activity, and the value obtained in the absence of ligand was subtracted for each point. The results were expressed as a percentage of the maximum luciferase activity obtained for each receptor. Each point is the mean±standard deviation of the mean of four separate determinations carried out in duplicate. […] The [^3H] steroid attached was measured after treatment with dextran-coated charcoal. The results presented are those for a single assay carried out in duplicate and representative of three separate assays.
Co-transfections were carried out and dose-response curves were constructed as described in FIG. 2. […] The assays of luciferase and β-galactosidase activity were carried out as described in “Materials and Methods”. The mean values of three independent assays are given in this table. nm=not measurable.
The CV-1 and Cos-7 cells were cultured in Dulbeco's modified Eagle's medium (DMEM) containing 10% (v/v) of fetal calf serum (FCS) (Gibco, Grand Island, N.Y.), in a humidified atmosphere containing 5% CO2. The HeLa cells were cultured under the same conditions. Transient transfections were carried out in 6-well multiplates according to the calcium phosphate procedure already described (42). A reference recombinant plasmid, pCMV-βgal, expressing bacterial β-galactosidase, was transfected conjointly with the receptor expression vector and the corresponding reporter gene so as to correct possible variations in he transfection efficiency. The precipitate was removed by washing after 24 hours, and the cells were kept in DMEX without FCS but containing hormone. After another 24 hours, the cells were rinsed and lysed for 15 minutes with 0.3 ml of lysis buffer [25 mM Tris.phosphate, pH 7.8, 8 mM […], 1% Triton X100, 10% glycerol (48)]. The corresponding luciferase activity as determined on an aliquot fraction (0.1 ml), by evaluation of the luminescence peak (for an integration time of 15 seconds), after injection of 0.1 ml of 1 mM luciferin in an LKB luminometer. The β-galactosidase was determined by the method modified by Bocquel et al. (49), for controlling the efficiency of each transfection.
The reporter gene pTAT-tk-Luc was provided by D. Gagne and was constructed as follows: an intermediate plasmid pTAT was first generated by insertion of the 966 bp EcoRI-BamHI segment obtained from pKT531 [offered freely by T. Grande (50)] into the corresponding sites of the vector pUC19 (Pharmacia). The fragment containing the sequence coding for the firefly luciferase and the thymidine kinase (tk) minimal promoter obtained from the Herpes simplex virus was isolated in the form of a BamHI fragment from pvit-tk-Luc (51) and inserted, downstream of the TAT promoter, into the corresponding site of pTAT. The reporter plasmid pGRE-tk-Luc was constructed by ligation of the fragment of HindIII-BglII digestion of pGRE-tk-CAT (52), which contains a synthetic GRE (AGAACAcagTGTTCT) upstream of the tk minimal promoter, into the HindIII-BglII sites of pLuc (53). The reporter gene p(17M)5-βGlob-Luc has been previously described (54). The reporter plasmid p(17M)5-tata-Luc was constructed from the plasmid p(17M)5-tata-CAT (55) by digestion with XhoI-BamHI and isolation of the fragment containing (17M5)-tata. This fragment was then inserted into the vector pGL2 (Promega) digested with the same restriction enzymes.

Structure (SMILES)	transactivation by the I747/T mutant receptor compared with wild-type receptor	Luciferase activity % hGR (I747/T)	EC50 hGR (I747/T)
C[C@]12CCC(=O)C=C1CC[C@@H]1[C@@H]2[C@@H](O)C[C@@]2(C)[C@H]1CC[C@]2(O)C(=O)CO [Cortisol, cortisol]	greatly reduced	15%	
C[C@]12C[C@H](O)[C@H]3[C@@H](CCC4=CC(=O)CC[C@@]43C)[C@@H]1CC[C@@H]2C(=O)CO [Corticosterone, corticosterone]	suppressed	0%	nM
C[C@]12CCC(=O)C=C1CC[C@@H]1[C@@H]2[C@@H](O)C[C@]2(C=O)[C@@H](C(=O)CO)CC[C@@H]12 [Aldosterone, aldosterone]	suppressed	0%	nM
C[C@@H]1C[C@H]2[C@@H]3CCC4=CC(=O)C=C[C@]4(C)[C@@]3(F)[C@@H](O)C[C@]2(C)[C@@]1(O)C(=O)CO [Dexamethasone, dexamethasone]		100%	
